In paper PMC10385825, “Synthesis of Benzocycloalkanone-Based Michael Acceptors and Biological Activities as Antimalarial and Antitrypanosomal Agents” (Molecules, 2023):
“And” between values parts separate entries of the source, which are not always exact repeats. Equal entries are not always repeated.

Experiments:
P. berghei ANKA = experiment: Four-day suppressive test in P. berghei-infected mice; assay type: in vivo, Plasmodium berghei (male Balb-C mice); conditions: for Sd: Survival days (± SEM): 20 mg kg−1 ip once daily, days 1–4 post-infection; for Sd: Survival days (± SEM) / %P: Percentage of parasitemia (± SEM): n = 6; for %P: Percentage of parasitemia (± SEM): fourth day post-infection, 20 mg kg−1 ip once daily for 4 days; for Survival: surviving mice/total, 20 mg kg−1 ip for 4 days
Description: Male Balb-C mice with a weight of 18–22 g were fed with a commercial diet ad libitum under standard procedures of animal care following the aforementioned method approved by the Ethics Committee of the Institute of Immunology. The animals were infected with a rodent malaria strain of Plasmodium berghei ANKA. A million infected erythrocytes, in phosphate-buffered saline solution (PBS, 10 mM, pH 7.4, 0.1 mL), were inoculated ip to infect the animal. The parasitemia was inspected by continuous microscopic examination of Giemsa-stained smears.
One million P. berghei, injected in the caudal vein i.v, were used to infect the mice (n = 6). After two hours of inoculation, the compounds that were active in vitro were dissolved in DMSO (0.1 M) and subsequently diluted with Saline-Tween 20 solution (2%), and administered ip for 4 days (20 mg kg^−^1). The parasite load was evaluated on the fourth day by examining Giemsa-stained smears. Chloroquine (20 mg kg^−^1) was used as the positive control and saline solution as the negative control. Non-treated mice were used as a baseline control for survival times. The survival days and percentage of parasitemia were used to express the results.

[1] = test system: T. cruzi epimastigotes (Y strain); experiment: Trypanocidal activity, proliferation of T. cruzi epimastigotes (MTT); assay type: cell-based; conditions: Trypanosoma cruzi, 96 h, read-out: %ITcP: T. cruzi (epimastigotes) % inhibition proliferation
Description: The trypanocidal activity of compounds 7–39 was evaluated on the viability of T. cruzi epimastigotes (Y Strain). Parasites were cultivated in LIT medium supplemented with 10% FBS. The MTT method was used with minor modifications. Next, 2 × 10^6 parasites/mL were seeded in a 96-well plate, adding 50 μM of each derivative dissolved in DMSO (final concentration remained below 1%). The plate was incubated for 96 h at 29 °C. Then, 5 mg mL^−^1 of 3-(4,5-dimethylthiazol-2-yl)-2,5-diphenyl tetrazolium bromide (MTT) was added and incubated in darkness for 4 h. After this time, acidic isopropanol (4N) was added and the plate was read at 540 nm in a spectrophotometer Synergy HT (Biotek). Benznidazole (50 µM) was used as a reference drug.

VERO cells = experiment: Cytotoxicity assay in VERO cells (MTT); assay type: cell-based; conditions: Chlorocebus sabaeus, 72 h
Description: The in vitro evaluations of compounds toxicity by MTT in VERO cells were performed as described in brief: VERO cells culture in DMEM, BSF 10%, were counted in suspension, seeded at 2 × 10^4 cells/well (100 μL) into a 96-well microplate, and incubated at 37 °C in a humidified 5% CO2 incubator for 24 h. After the incubation period, compounds were added in different concentrations: 50, 100, 150, 200, and 500 μM. The plate was incubated for 72 h in the same conditions. Then, 5 mg mL^−^1 of 3-(4,5-dimethylthiazol-2-yl)-2,5-diphenyl tetrazolium bromide (MTT) was added and incubated in darkness for 4 h. After this time, DMSO was added and the plate was read at 540 nm in a spectrophotometer Synergy HT (Biotek). The test was carried out in triplicate including untreated cells and reference drug controls.

β-hematin formation = experiment: Inhibition of β-hematin formation in vitro; assay type: biochemical; conditions: for IC50: n = 3, read-out: IC50 (βHF) inhibition of β-hematin formation (± SEM)
Description: The assay was performed according to previously reported protocols. Hemin chloride (50 μL, 4 mM) in DMSO (5.2 mg mL^−1) was pipetted into 96-well microplates. Different concentrations (0.1–100 mM) of the compounds in DMSO were added in triplicate (50 μL) with a final concentration of 0.025 mM–25 mM/well. Water (50 μL) or DMSO (50 μL) were used as controls. […] Next, the plates were incubated at 37 °C for 48 h and subsequently centrifuged (4000 rpm × 15 min). The supernatant was washed twice with DMSO (200 μL) and resuspended in NaOH (200 μL, 0.2 N). The solubilized products were diluted (1:2) with NaOH (0.1 N), and the plates were read in an ELISA reader at 405 nm (Microplate Reader, BIORAD-550). The results are expressed as % IβHF.

Work on `O=C1/C(=C/c2ccc(OCc3ccccc3)cc2)Cc2cc(Cl)ccc21` [compound 28, (E)-2-[4-(Benzyloxy)benzylidene]-5-chloro-2,3-dihydroinden-1-one] yielded a melting point of 189 to 190 °C.
With `COc1ccc(OC)c2c1C/C(=C\c1ccc(SCc3ccccc3)cc1)C2=O` [compound 12, (E)-2-[4-(Benzylthio)benzylidene]-2,3-dihydro-4,7-dimethoxyinden-1-one] the “Sd: Survival days (± SEM)” value (P. berghei ANKA) was 12.3 ± 2.40 days and 12.3 ± 2.4 days, the “%P: Percentage of parasitemia (± SEM)” value (P. berghei ANKA) was 12.5 ± 3.1% and the Survival (P. berghei ANKA) was 0/6. It also gave an inhibition at 50 µM [1] of 18.5 ± 2.9%, an IC50 (VERO cells) of over 150 µM and an IC50 (β-hematin formation) of 0.66 ± 0.1 µM.
In the case of `Cc1cccc2c1C/C(=C\c1ccc(OCc3ccccc3)cc1)C2=O` [compound 27, (E)-2-[4-(Benzyloxy)benzylidene]-2,3-dihydro-4-methylinden-1-one], the melting point is reported as 127 to 129 °C.
Work on `COc1cc2c(c(OC)c1)C(=O)/C(=C/c1ccc(SCc3ccccc3)cc1)C2` [compound 13, (E)-2-[4-(Benzylthio)benzylidene]-2,3-dihydro-5,7-dimethoxyinden-1-one] yielded a melting point of 176 to 178 °C.
Molecule `COc1ccc2c(c1OC)C/C(=C\c1ccc(OCc3ccccc3)cc1)C2=O` [compound 23, (E)-2-[4-(Benzyloxy)benzylidene]-2,3-dihydro-4,5-dimethoxyinden-1-one] has a melting point of 167 to 168 °C.
In the case of `COc1ccc(OC)c2c1C/C(=C\c1ccc(OCc3ccccc3)cc1)C2=O` [compound 25, (E)-2-[4-(Benzyloxy)benzylidene]-2,3-dihydro-4,7-dimethoxyinden-1-one], the melting point is reported as 209 to 210 °C.
In the case of `O=C1/C(=C/c2ccc(OCc3ccccc3)cc2)Cc2ccccc21` [compound 20, (E)-2-[4-(Benzyloxy)benzylidene]-2,3-dihydroinden-1-one], the melting point is reported as 170 °C.
With `COc1ccc2c(c1)C/C(=C\c1ccc(OCc3ccccc3)cc1)C2=O` [compound 21, (E)-2-[4-(Benzyloxy)benzylidene]-2,3-dihydro-5-methoxyinden-1-one] the melting point was 141 to 142 °C.
For `O=C1/C(=C/c2ccc(OCc3ccccc3)cc2)Cc2c(Cl)cc(Cl)cc21` [compound 30, (E)-2-[4-(Benzyloxy)benzylidene]-4,6-dichloro-2,3-dihydroinden-1-one], the melting point was 202 to 203 °C.
With `COc1cc2c(cc1OC)C(=O)/C(=C/c1ccc(OCc3ccccc3)cc1)C2` [compound 24, (E)-2-[4-(Benzyloxy)benzylidene]-2,3-dihydro-5,6-dimethoxyinden-1-one] the melting point was 207 to 208 °C.
`O=C1/C(=C/c2ccc(SCc3ccccc3)cc2)Cc2cc3c(cc21)OCO3` [compound 14, (E)-2-[4-(Benzylthio)benzylidene]-2,3-dihydro-5,6-methylendioxyinden-1-one] gave a melting point of 194 to 196 °C.
With `O=C1/C(=C/c2ccc(SCc3ccccc3)cc2)Cc2c(Cl)cc(Cl)cc21` [compound 18, (E)-2-[4-(Benzylthio)benzylidene]-4,6-dichloro-2,3-dihydroinden-1-one] the melting point was 181 to 183 °C.
Molecule `O=C1/C(=C/c2ccc(SCc3ccccc3)cc2)CCc2ccccc21` [compound 32, (E)-2-[4-(Benzylthio)benzylidene]-3,4-dihydronaphthalen-1(2H)-one] has an inhibition at 50 µM [1] of 43.7 ± 6.7%, an IC50 (VERO cells) of over 150 µM and a melting point of 99 to 100 °C.
With `CCN(CC)CCCC(C)Nc1ccnc2cc(Cl)ccc12` (stereo not shown) [CQ, chloroquine, reference compound] the “Sd: Survival days (± SEM)” value (P. berghei ANKA) was 28 ± 1.34 days and 28 ± 1.3 days, the “%P: Percentage of parasitemia (± SEM)” value (P. berghei ANKA) was 1.4 ± 0.54% and the Survival (P. berghei ANKA) was 5/6. The “%IβHF: Percentage inhibition β-hematin formation” value (β-hematin formation; concentration of 10 μM) was 95.34% and the IC50 (β-hematin formation) was 0.18 ± 0.1 µM.
In the case of `O=C1/C(=C/c2ccc(OCc3ccccc3)cc2)Cc2ccc(Cl)cc21` [compound 29, (E)-2-[4-(Benzyloxy)benzylidene]-6-chloro-2,3-dihydroinden-1-one], the melting point is reported as 186 to 187 °C.
With `O=C1/C(=C/c2ccc(OCc3ccccc3)cc2)Cc2cc(F)cc(F)c21` [compound 31, (E)-2-[4-(Benzyloxy)benzylidene]-5,7-difluoro-2,3-dihydroinden-1-one] the melting point was 204 to 206 °C.
`Cc1cccc2c1C/C(=C\c1ccc(SCc3ccccc3)cc1)C2=O` [compound 15, (E)-2-[4-(Benzylthio)benzylidene]-2,3-dihydro-4-methylinden-1-one] showed a melting point of 167 to 169 °C.
With `COc1ccc2c(c1)C(=O)/C(=C/c1ccc(SCc3ccccc3)cc1)C2` [compound 9, (E)-2-[4-(Benzylthio)benzylidene]-2,3-dihydro-6-methoxyinden-1-one] the melting point was 175 to 177 °C.
Molecule `O=C1/C(=C/c2ccc(SCc3ccccc3)cc2)Cc2cc(Cl)ccc21` [compound 16, (E)-2-[4-(Benzylthio)benzylidene]-5-chloro-2,3-dihydroinden-1-one] has a melting point of 140 to 142 °C.
In the case of `COc1cccc2c1CC/C(=C\c1ccc(SCc3ccccc3)cc1)C2=O` [compound 33, (E)-2-[4-(Benzylthio)benzylidene]-3,4-dihydro-5-methoxynaphthalen-1(2H)-one], the inhibition at 50 µM [1] is reported as 51.1 ± 3.4% and the IC50 (VERO cells) is reported as over 150 µM.
For `O=C1/C(=C/c2ccc(SCc3ccccc3)cc2)Cc2cc(F)cc(F)c21` [compound 19, (E)-2-[4-(Benzylthio)benzylidene]-5,7-difluoro-2,3-dihydroinden-1-one], the IC50 (VERO cells) was over 150 µM and the melting point was 170 to 172 °C.
In the case of `O=C1/C(=C/c2ccc(SCc3ccccc3)cc2)Cc2ccccc21` [compound 7, (E)-2-[4-(Benzylthio)benzylidene]-2,3-dihydroinden-1-one], the melting point is reported as 155 to 157 °C.
For `COc1ccc2c(c1)C(=O)/C(=C/c1ccc(SCc3ccccc3)cc1)CC2` [compound 35, (E)-2-[4-(Benzylthio)benzylidene]-3,4-dihydro-7-methoxynaphthalen-1(2H)-one], the inhibition at 50 µM [1] was 36.2 ± 6.1% and the IC50 (VERO cells) was over 150 µM.
In the case of `COc1cc2c(cc1OC)C(=O)/C(=C/c1ccc(SCc3ccccc3)cc1)C2` [compound 11, (E)-2-[4-(Benzylthio)benzylidene]-2,3-dihydro-5,6-dimethoxyinden-1-one], the “Sd: Survival days (± SEM)” value (P. berghei ANKA) is reported as 14.2 ± 2.16 days and 14.2 ± 2.2 days, the “%P: Percentage of parasitemia (± SEM)” value (P. berghei ANKA) is reported as 7.6 ± 2.3% and the Survival (P. berghei ANKA) is reported as 0/6. It also gave an inhibition at 50 µM [1] of 40 ± 8.2%, an IC50 (VERO cells) of over 150 µM and an IC50 (β-hematin formation) of 0.82 ± 0.1 µM.
In the case of `O=C1/C(=C/c2ccc(SCc3ccccc3)cc2)Cc2ccc(Cl)cc21` [compound 17, (E)-2-[4-(Benzylthio)benzylidene]-6-chloro-2,3-dihydroinden-1-one], the melting point is reported as 204 °C.
With `COc1ccc2c(c1)C/C(=C\c1ccc(SCc3ccccc3)cc1)C2=O` [compound 8, (E)-2-[4-(Benzylthio)benzylidene]-2,3-dihydro-5-methoxyinden-1-one] the melting point was 166 to 168 °C.
With `COc1ccc2c(c1)C(=O)/C(=C/c1ccc(OCc3ccccc3)cc1)C2` [compound 22, (E)-2-[4-(Benzyloxy)benzylidene]-2,3-dihydro-6-methoxyinden-1-one] the melting point was 178 to 179 °C.
Molecule `COc1ccc2c(c1)CC/C(=C\c1ccc(SCc3ccccc3)cc1)C2=O` [compound 34, (E)-2-[4-(Benzylthio)benzylidene]-3,4-dihydro-6-methoxynaphthalen-1(2H)-one] has a melting point of 122 to 124 °C.
`O=C(Cn1ccnc1[N+](=O)[O-])NCc1ccccc1` [Bnz, benznidazole, reference compound] showed an inhibition at 50 µM [1] of 60 ± 2.9% and an IC50 (VERO cells) of over 200 µM.
